According to publication PMC8718007, “Decreased glutamate transport in acivicin resistant Leishmania tarentolae” (PLoS Neglected Tropical Diseases, 2021):

Target: LtaPh_2202300 (AAT22) (Leishmania tarentolae, UniProt A0A640KGB0)
Experiment: time-dependent uptake of 3H-glutamate, null mutant vs control strain
Type: cell-based
Settings: 0.1 mM glutamate in PBS, room temperature; labelled compound

Chain of LtaPh_2202300 (AAT22) (A0A640KGB0 entry or part of it): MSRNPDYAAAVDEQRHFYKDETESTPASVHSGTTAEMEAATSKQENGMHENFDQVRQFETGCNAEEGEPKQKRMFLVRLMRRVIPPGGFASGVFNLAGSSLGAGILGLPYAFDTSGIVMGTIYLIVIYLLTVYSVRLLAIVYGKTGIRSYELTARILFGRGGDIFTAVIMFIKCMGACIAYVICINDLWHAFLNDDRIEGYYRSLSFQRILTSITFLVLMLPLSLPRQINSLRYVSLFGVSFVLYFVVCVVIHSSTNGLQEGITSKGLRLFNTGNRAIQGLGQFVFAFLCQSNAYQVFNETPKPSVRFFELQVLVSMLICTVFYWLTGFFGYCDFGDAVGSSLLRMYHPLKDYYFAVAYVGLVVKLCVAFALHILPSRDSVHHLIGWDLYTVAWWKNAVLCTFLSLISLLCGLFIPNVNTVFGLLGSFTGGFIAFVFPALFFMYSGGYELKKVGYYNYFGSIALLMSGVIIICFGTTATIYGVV

N[C@@H](CCC(=O)O)C(=O)O [glutamate]
uptake: The accumulation of glutamate but not glutamine was greatly diminished in that recombinant strain
